Reference: ChEMBL document CHEMBL1201862, “PubChem BioAssay data set” (2004)
Values joined by “and” are separate entries in the source; they are usually repeats but may differ in a detail not shown here. Equal entries are not always repeated.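 How tested: cells in 96-well plates exposed to compound for 48 hours at five concentrations. GI50 marks 50% less growth.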 Active and inactive are the calls of the source. Rule as the data show it: active = GI50 up to about 1.1 µM and inactive = higher.

Key:
Experiment in all cases: NCI anticancer screen, dose series, 48 h
NCI/ADR-RES = tested on: NCI/ADR-RES
IGROV-1 = tested on: IGROV-1
OVCAR-3 = tested on: OVCAR-3
A549 = tested on: A549
786-0 = tested on: 786-0
HOP-92 = tested on: HOP-92
NCI-H226 = tested on: NCI-H226
SNB-75 = tested on: SNB-75
NCI-H522 = tested on: NCI-H522
CCRF-CEM = tested on: CCRF-CEM
SK-MEL-28 = tested on: SK-MEL-28
K562 = tested on: K562
LOX IMVI = tested on: LOX IMVI
EKVX = tested on: EKVX
CAKI-1 = tested on: CAKI-1
SF-268 = tested on: SF-268
BT-549 = tested on: BT-549
UO-31 = tested on: UO-31
RXF 393 = tested on: RXF 393
MCF7 = tested on: MCF7

Measured: GI50

C=CCc1cccc2cc(C(=O)Nc3nc(C45CC6CC(CC(C6)C4)C5)cs3)c(=O)oc12
inactive: NCI/ADR-RES 27.2 µM | IGROV-1 27.8 µM | OVCAR-3 24.4 µM | A549 49.9 µM | 786-0 23.2 µM | HOP-92 16 µM | NCI-H226 29.1 µM | SNB-75 24.2 µM | NCI-H522 49.7 µM | CCRF-CEM 64.3 µM | SK-MEL-28 61.8 µM | K562 27.4 µM | LOX IMVI 19.4 µM | EKVX 25.1 µM | CAKI-1 20.6 µM | SF-268 10.7 µM | BT-549 70 µM | UO-31 10.8 µM | RXF 393 6.08 µM | MCF7 > 100 µM

O=S(=O)(Nc1ccccc1S(=O)(=O)c1ccccc1)c1ccccc1
inactive: NCI/ADR-RES 57.1 µM | IGROV-1 > 100 µM | OVCAR-3 65.6 µM | A549 67.1 µM | 786-0 > 100 µM | HOP-92 76.9 µM | NCI-H226 > 100 µM | SNB-75 > 100 µM | NCI-H522 41.2 µM | CCRF-CEM 42.7 µM | SK-MEL-28 > 100 µM | K562 61.5 µM | LOX IMVI > 100 µM | EKVX 29.4 µM | CAKI-1 > 100 µM | SF-268 91 µM | BT-549 63.1 µM | UO-31 > 100 µM | RXF 393 > 100 µM | MCF7 > 100 µM

COc1cc(/C=C2\N=C(c3ccccc3)N(c3cc4cc(Sc5ccccc5)ccc4[nH]3)C2=O)ccc1O
active: MCF7 0.255 µM
inactive: NCI/ADR-RES 3.13 µM | IGROV-1 3.28 µM | A549 > 50 µM | 786-0 9.59 µM | HOP-92 6.12 µM | NCI-H226 > 50 µM | SNB-75 21.8 µM | NCI-H522 1.86 µM | CCRF-CEM 2.69 µM | SK-MEL-28 > 50 µM | K562 1.97 µM | LOX IMVI 29.9 µM | EKVX 22.1 µM | CAKI-1 11.1 µM | BT-549 13.6 µM | UO-31 15.6 µM | RXF 393 5.02 µM

NC(=O)C(C(N)=O)=C(O)/C(O)=C/C(=O)c1ccccc1
inactive: NCI/ADR-RES > 100 µM | IGROV-1 > 100 µM | OVCAR-3 51.4 µM | A549 > 100 µM | 786-0 > 100 µM | HOP-92 > 100 µM | NCI-H226 > 100 µM | SNB-75 > 100 µM | NCI-H522 16.4 µM | CCRF-CEM 21.5 µM | SK-MEL-28 > 100 µM | LOX IMVI 89.9 µM | EKVX > 100 µM | CAKI-1 > 100 µM | SF-268 > 100 µM | BT-549 48.5 µM | UO-31 > 100 µM | RXF 393 > 100 µM
active: K562 0.0652 µM | MCF7 0.849 µM

Cc1nc2c(=O)[nH]c3ccc(Cl)cc3c2o1
inactive: NCI/ADR-RES > 100 µM | IGROV-1 89.7 µM | OVCAR-3 > 100 µM | A549 > 100 µM | 786-0 > 100 µM | HOP-92 > 100 µM | NCI-H226 > 100 µM | SNB-75 > 100 µM | NCI-H522 > 100 µM | CCRF-CEM > 100 µM | K562 > 100 µM | LOX IMVI > 100 µM | EKVX 69.7 µM | CAKI-1 > 100 µM | SF-268 > 100 µM | BT-549 > 100 µM | UO-31 > 100 µM | RXF 393 > 100 µM | MCF7 > 100 µM

CCCCCCC(O)C(O)CCC(O)C1CCC(CCCCC(O)CC2=CC(C)OC2=O)O1 (stereo not drawn) [ACETOGENINS]
inactive: NCI/ADR-RES 1.14 µM | IGROV-1 2.95 µM | OVCAR-3 1.71 µM | A549 1.79 µM | 786-0 6.58 µM | HOP-92 4.88 µM | NCI-H226 1.74 µM | SNB-75 2.69 µM | NCI-H522 7.71 µM | CCRF-CEM 3.58 µM | SK-MEL-28 4.66 µM | K562 1.82 µM | LOX IMVI 1.39 µM | EKVX 1.92 µM | CAKI-1 2.2 µM | SF-268 2.06 µM | BT-549 23.4 µM | UO-31 2.06 µM | RXF 393 5.87 µM | MCF7 1.26 µM

CCOC(=O)c1[nH]cc(C)c1-c1c[nH]c2ccccc12
inactive: NCI/ADR-RES 21.4 µM | IGROV-1 33.2 µM | OVCAR-3 26.7 µM | A549 28.8 µM | 786-0 34.9 µM | HOP-92 22.8 µM | NCI-H226 19.9 µM | SNB-75 28.1 µM | NCI-H522 24.6 µM | CCRF-CEM 18.9 µM | SK-MEL-28 39.4 µM | K562 6.04 µM | LOX IMVI 18 µM | EKVX > 63.8 µM | CAKI-1 37.1 µM | SF-268 23.7 µM | BT-549 26.5 µM | UO-31 19.3 µM | RXF 393 30.1 µM | MCF7 22.3 µM

O=C1CS(=O)(=O)C(c2cccc(Oc3ccccc3)c2)N1c1ccc(Cl)cc1 (stereo not drawn)
inactive: NCI/ADR-RES 18.9 µM | IGROV-1 14.3 µM | OVCAR-3 24.2 µM | A549 30.8 µM | 786-0 16.5 µM | HOP-92 6.14 µM | NCI-H226 21.9 µM | SNB-75 28 µM | NCI-H522 16.8 µM | CCRF-CEM 25.6 µM | SK-MEL-28 32.4 µM | K562 14.5 µM | LOX IMVI 14.4 µM | EKVX 11.5 µM | CAKI-1 15.6 µM | SF-268 25.1 µM | BT-549 24.7 µM | UO-31 28.6 µM | RXF 393 18.6 µM | MCF7 13.8 µM

COc1cc2cc(C(=O)N3CC(CCl)c4ccc(NCCN)cc43)[nH]c2c(OC)c1OC (stereo not drawn)
active: NCI/ADR-RES 0.208 µM | IGROV-1 0.112 µM | OVCAR-3 0.236 µM | A549 0.208 µM | 786-0 0.228 µM | HOP-92 0.289 µM | NCI-H226 0.296 µM | SNB-75 0.232 µM | NCI-H522 0.046 µM | CCRF-CEM 0.0783 µM | SK-MEL-28 0.249 µM | K562 0.11 µM | LOX IMVI 0.155 µM | EKVX 0.528 µM | CAKI-1 0.143 µM | SF-268 0.242 µM | BT-549 0.345 µM | UO-31 0.132 µM | RXF 393 0.105 µM | MCF7 0.0361 µM

O=C1NCC(CSc2nc3cc(C4CCCc5c4[nH]c4ccccc54)ccc3o2)N1 (stereo not drawn)
inactive: NCI/ADR-RES 50.4 µM | IGROV-1 33 µM | OVCAR-3 44.1 µM | A549 22.5 µM | 786-0 43.3 µM | HOP-92 21.2 µM | NCI-H226 62.7 µM | SNB-75 > 100 µM | NCI-H522 29.2 µM | CCRF-CEM 35.2 µM | SK-MEL-28 80.2 µM | K562 31.5 µM | LOX IMVI 32.5 µM | EKVX 25.6 µM | CAKI-1 41.5 µM | SF-268 36 µM | BT-549 47.1 µM | UO-31 53.1 µM | RXF 393 26.5 µM | MCF7 39.7 µM

O=C(O)/C=C\C(=O)Nc1ccc2c(c1)-c1ccccc1C2
inactive: NCI/ADR-RES 56.1 µM | IGROV-1 > 100 µM | OVCAR-3 30.8 µM | A549 > 100 µM | 786-0 91.4 µM | HOP-92 44.6 µM | NCI-H226 28.9 µM | SNB-75 > 100 µM | NCI-H522 37 µM | CCRF-CEM 56.8 µM | SK-MEL-28 > 100 µM | K562 64.9 µM | LOX IMVI 77.3 µM | EKVX 87.9 µM | CAKI-1 > 100 µM | SF-268 58.2 µM | BT-549 39.8 µM | UO-31 > 100 µM | RXF 393 > 100 µM | MCF7 37.3 µM

O=S(=O)(O)c1ccc2c(/N=N/c3ccc(S(=O)(=O)O)c4ccccc34)c(O)c(S(=O)(=O)O)cc2c1
inactive: NCI/ADR-RES > 100 µM | IGROV-1 > 100 µM | OVCAR-3 > 100 µM | 786-0 > 100 µM | HOP-92 > 100 µM | NCI-H226 > 100 µM | SNB-75 > 100 µM | NCI-H522 > 100 µM | CCRF-CEM > 100 µM | SK-MEL-28 > 100 µM | K562 > 100 µM | LOX IMVI > 100 µM | EKVX > 100 µM | CAKI-1 > 100 µM | SF-268 > 100 µM | BT-549 > 100 µM | UO-31 > 100 µM | RXF 393 > 100 µM and 63.5 µM | MCF7 > 100 µM

C=C1C[C@@H](O)[C@@H](Br)C(C)(C)[C@@]12C=CC(O)(CBr)CC2 (stereo partly drawn)
active: NCI/ADR-RES 0.0191 µM
inactive: IGROV-1 89.3 µM | OVCAR-3 > 100 µM | A549 > 100 µM | 786-0 > 100 µM | HOP-92 13.6 µM | NCI-H226 > 100 µM | NCI-H522 62.4 µM | CCRF-CEM 28.1 µM | SK-MEL-28 > 100 µM | K562 55.8 µM | LOX IMVI 36.1 µM | EKVX 6.98 µM | CAKI-1 > 100 µM | SF-268 50 µM | BT-549 29.9 µM | UO-31 > 100 µM | RXF 393 43.3 µM | MCF7 59.6 µM

CCN(CC)C(=S)SC [METHYLDIETHYL CARBAMODITHIOATE]
inactive: NCI/ADR-RES > 100 µM | IGROV-1 > 100 µM | OVCAR-3 > 100 µM | A549 > 100 µM | 786-0 > 100 µM | HOP-92 > 100 µM | NCI-H226 > 100 µM | SNB-75 > 100 µM | NCI-H522 > 100 µM | CCRF-CEM > 100 µM | SK-MEL-28 > 100 µM | K562 > 100 µM | LOX IMVI > 100 µM | EKVX > 100 µM | SF-268 > 100 µM | BT-549 > 100 µM | RXF 393 > 100 µM | MCF7 > 100 µM
